Here are results for seven compounds from patent US9056858B2, “Indazole and pyrazolopyridine compounds as CCR1 receptor antagonists” (Boehringer Ingelheim International GmbH, priority 2009, dated 2015).

In the assay the target is T1, CCR1 (Homo sapiens, UniProt P32246).
T1 construct: host or cells: Non-adherent cells
T1 sequence (P32246 1-355): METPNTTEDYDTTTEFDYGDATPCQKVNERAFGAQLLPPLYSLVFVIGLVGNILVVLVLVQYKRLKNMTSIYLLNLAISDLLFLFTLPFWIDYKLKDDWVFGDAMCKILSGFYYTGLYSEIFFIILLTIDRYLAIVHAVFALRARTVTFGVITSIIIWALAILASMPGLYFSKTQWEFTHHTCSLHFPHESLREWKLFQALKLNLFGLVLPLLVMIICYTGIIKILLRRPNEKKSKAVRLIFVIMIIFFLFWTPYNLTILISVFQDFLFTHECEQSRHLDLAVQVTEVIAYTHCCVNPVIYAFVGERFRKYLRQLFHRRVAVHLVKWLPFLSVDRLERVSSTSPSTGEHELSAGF
The experiment in a line: functional cellular assay measuring calcium flux in CCR1 transfected cells (block of CCR1/MIP-1α interaction). In kind it is cell-based. As to conditions: cells stably expressing recombinant CCR1 and G-alpha-16, MIP-1alpha added at EC80. As to the method:
Compounds are assessed for the ability to block the interaction of CCR1 and MIP-1α in a functional cellular assay measuring calcium flux in CCR1 transfected cells.
Non-adherent cells purchased from Chemicon Corporation (HTS005C), stably expressing recombinant CCR1 and G-alpha-16 are grown in RPMI 1640 medium (Mediatech 10-080-CM) supplemented with 10% FBS, 0.4 mg/mL Geneticin and penicillin/streptomycin. On the day of the assay, the cells are loaded with Calcium 4 dye (Molecular Devices R7448) with Probenecid (Invitrogen P346400) at 8E5 cells/mL for 1 hour at room temperature. After 1 hour, they are seeded in a 384-well tissue culture-treated plate at a density of 20,000 cells/well. Appropriately diluted test compound is added to the well to achieve a top concentration of 3,000 nM (diluted 4-fold with 10 doses total). The final concentration of DMSO is 1%. The buffer is HBSS (Invitrogen 14025) with 20 mM HEPES at pH 7.4. The cells incubate 30 minutes at 37 C and then 30 minutes at room temperature. The plates are transferred to the […] FDSS6000 where MIP-1alpha in 1% BSA is added at the EC80 final concentration. All plates must be read within 4 hours of the start of dye-loading. Wells +/− MIP-1alpha containing diluted DMSO instead of compound serve as the controls. Data are analyzed using Activity Base software.
Take `COC(=O)CCS(=O)(=O)c1cccc(C2(NC(=O)c3cncc4c3cnn4-c3ccc(F)cc3)CC2)c1` [3-[3-(1-{[1-(4-Fluoro-phenyl)-1H-pyrazolo[3,4-c]pyridine-4-carbonyl]-amino}-cyclopropyl)-benzenesulfonyl]-propionic acid methyl ester]: the IC50 turned out to be 17 nM.
In the case of `CS(=O)(=O)c1cccc(C2(NC(=O)c3cncc4c3cnn4-c3ccc(F)cc3)CC2)c1` [1-(4-Fluoro-phenyl)-1H-pyrazolo[3,4-c]pyridine-4-carboxylic acid [1-(3-methanesulfonyl-phenyl)-cyclopropyl]-amide], the 50% inhibitory concentration (IC50) came out at 1 nM.
The same measure for `O=C(O)c1cccc(C2(NC(=O)c3cncc4c3cnn4-c3ccc(F)cc3)CC2)c1` [3-(1-{[1-(4-Fluoro-phenyl)-1H-pyrazolo[3,4-c]pyridine-4-carbonyl]-amino}-cyclopropyl)-benzoic acid]: 27 nM; for `NC(=O)c1cccc(C2(NC(=O)c3cncc4c3cnn4-c3ccc(F)cc3)CC2)c1` [1-(4-Fluoro-phenyl)-1H-pyrazolo[3,4-c]pyridine-4-carboxylic acid [1-(3-carbamoyl-phenyl)-cyclopropyl]-amide]: 40 nM; for `O=C(NC1(c2cccnc2)CC1)c1cncc2c1cnn2-c1ccc(F)cc1` [1-(4-Fluoro-phenyl)-1H-pyrazolo[3,4-c]pyridine-4-carboxylic acid (1-pyridin-3-yl-cyclopropyl)-amide]: 88 nM.
For `O=C(NC1(c2nncs2)CC1)c1cncc2c1cnn2-c1ccc(F)cc1` [1-(4-Fluoro-phenyl)-1H-pyrazolo[3,4-c]pyridine-4-carboxylic acid (1-1,3,4-thiadiazol-2-yl-cyclopropyl)-amide] the value was 265 nM.
With `CS(=O)(=O)c1cc(C2(NC(=O)c3cc(Br)cc4c3cnn4-c3ccc(F)cc3)CC2)ccn1` [6-Bromo-1-(4-fluoro-phenyl)-1H-indazole-4-carboxylic acid [1-(2-methanesulfonyl-pyridin-4-yl)-cyclopropyl]-amide], the concentration for half-maximal inhibition (IC50) turned out to be 2 nM.
